From ChEMBL document CHEMBL1143486, “The synthesis and 16S A-site rRNA recognition of carbohydrate-free aminoglycosides” (Bioorg Med Chem Lett, 2005)

How the values were obtained:
Nucleic Acid = test: Inhibitory concentration against cell-free bacterial transcription / translation (T/T) assay; format: functional
Ribosomal RNA A-site = test: Dissociation constant against 16S rRNA A-site; format: nucleic-acid assay

SMILES	IC50 (Nucleic Acid)	Kd (Ribosomal RNA A-site)
NC1C[C@@H](N)[C@@H](O)C(O)[C@H]1OCSc1ccnc2cc(C(F)(F)F)ccc12 (stereo not given in full)	> 50 µM	35 µM
COc1ccc(CO[C@H]2C(N)C[C@@H](N)[C@@H](O)C2O)cc1 (stereo not given in full)	> 50 µM	315 µM
COc1ccc(CO[C@H]2C(N)C[C@@H](N)[C@@H](O)C2OCCNCCCN)cc1 (stereo not given in full)	> 50 µM	10 µM
CN(C)CCCNC(=O)COC1[C@@H](OCSc2ccnc3cc(C(F)(F)F)ccc23)C(N)C[C@@H](N)[C@H]1O (stereo not given in full)	> 50 µM	88 µM
NCCCNCCOC1[C@@H](OCSc2ccnc3cc(C(F)(F)F)ccc23)C(N)C[C@@H](N)[C@H]1O (stereo not given in full)	2.1 µM	2 µM
NCCCNCCO[C@H]1C(O)[C@@H](OCSc2ccnc3cc(C(F)(F)F)ccc23)C(N)C[C@H]1N (stereo not given in full)	15 µM	1.5 µM
CN(C)CCCNC(=O)CO[C@H]1C(O)[C@@H](OCSc2ccnc3cc(C(F)(F)F)ccc23)C(N)C[C@H]1N (stereo not given in full)	> 50 µM	241 µM
COc1ccc(CO[C@H]2C(N)C[C@@H](N)[C@@H](OCCNCCCN)C2O)cc1 (stereo not given in full)	> 50 µM	27 µM
NC[C@H]1O[C@H](O[C@H]2[C@H](O)[C@@H](O)[C@H](N)C[C@@H]2N)[C@H](N)[C@@H](O)[C@@H]1O [NEAMINE]	> 50 µM	5 µM
NC[C@@H]1O[C@H](O[C@H]2[C@@H](O)[C@H](O[C@@H]3[C@@H](O)[C@H](N)C[C@H](N)[C@H]3O[C@H]3O[C@H](CO)[C@@H](O)[C@H](O)[C@H]3N)O[C@@H]2CO)[C@H](N)[C@@H](O)[C@@H]1O [PAROMOMYCIN]	0.6 µM	0.1 µM
